Consider 15 molecules from ChEMBL document CHEMBL1629484, “1,2-diamino-ethane-substituted-6,7,8,9-tetrahydro-5H-pyrimido[4,5-d]azepines as TRPV1 antagonists with improved properties” (Bioorg Med Chem Lett, 2010).

Data set [1] has as its target T1, Transient receptor potential cation channel subfamily V member 1 (Rattus norvegicus, UniProt O35433). Nature of the data set: Antagonist activity at rat TRPV1 expressed in HEK293 cells assessed as inhibition of capsaicin-induced intracellular Ca2+ level by FLIPR assay. Format: functional, cell-based.
Data set [2] is described as follows: Aqueous equilibrium solubility of compound in simulated intestinal fluid at pH 6.8. Type of data set: physicochemical.
Data set [3] in a line: Aqueous equilibrium solubility of compound in phosphate buffer at pH 2. Format: physicochemical.
In data set [4] the target is T2, Transient receptor potential cation channel subfamily V member 1 (Homo sapiens, UniProt Q8NER1). The data set is described as follows: Antagonist activity at human TRPV1 expressed in HEK293 cells assessed as inhibition of capsaicin-induced intracellular Ca2+ level by FLIPR assay. Format: functional, cell-based.
A short description of data set [5]: Clearance in rat. Format: ADME, organism-based. Conditions: in vivo.
In data set [6] the target is T1, Transient receptor potential cation channel subfamily V member 1. Nature of the data set: Displacement of [3H]RTX from rat TRPV1 expressed in HEK cells. Type of data set: cell-based, HEK293. Background: Displacement assays read how much labelled ligand stays bound in the presence of the test substance.
Data set [7] is described as follows: Tmax in fasted Sprague-Dawley rat at 2 mg/kg, po. More on the design: dose 2 mg/kg, route oral. Type of data set: ADME, organism-based. Conditions: in vivo.
Data set [8] concerns the target T1, Transient receptor potential cation channel subfamily V member 1. The data set is described as follows: Inhibition of rat TRPV1 expressed in HEK cells. Format: cell-based, HEK293.
The subject of data set [9] is Rattus norvegicus. Nature of the data set: Analgesic activity against carrageenan-induced thermal hyperalgesia in rat assessed as maximal possible effect at 30 mg/kg, po administered 3 hrs post-carrageenan challenge. Format: functional.
Data set [10] is described as follows: Cmax in fasted Sprague-Dawley rat at 2 mg/kg, po. Format: ADME, organism-based. More on the design: dose 2 mg/kg, route oral. Conditions: in vivo.
Data set [11] in a line: Clearance in fasted Sprague-Dawley rat at 0.5 mg/kg, iv and 2 mg/kg, po. Type of data set: ADME, organism-based. Conditions: in vivo.
Data set [12] can be described thus: Terminal plasma concentration in rat at 30 mg/kg, po administered 5 hrs post-carrageenan challenge. Conditions: read-out: Cp(T). Type of data set: ADME, organism-based. More on the design: dose 30 mg/kg, route oral.
Data set [13] deals with T2, Transient receptor potential cation channel subfamily V member 1. The data set is described as follows: Inhibition of human TRPV1 expressed in HEK cells. Format: cell-based, HEK293.
The nature of data set [14]: Volume of distribution at steady state in fasted Sprague-Dawley rat at 0.5 mg/kg, iv and 2 mg/kg, po. Format: ADME, organism-based. Conditions: in vivo, read-out: Vdss.
Data set [15] can be described thus: Oral bioavailability in fasted Sprague-Dawley rat at 2 mg/kg. Type of data set: ADME, organism-based. Conditions: in vivo.
The nature of data set [16]: Half life in fasted Sprague-Dawley rat at 0.5 mg/kg, iv and 2 mg/kg, po. Format: ADME, organism-based. Conditions: in vivo.
The nature of data set [17]: AUC (infinity) in fasted Sprague-Dawley rat at 2 mg/kg, po. Type of data set: ADME, organism-based. Further details: time infinity, dose 2 mg/kg, route oral. Conditions: plasma.
Data set [18] in a line: Terminal plasma concentration in rat at 5 mg/kg, po administered 5 hrs post-carrageenan challenge. Type of data set: ADME, organism-based. Further details: dose 5 mg/kg, route oral. Conditions: read-out: Cp(T).
Data set [19] has as its system Rattus norvegicus. Nature of the data set: Analgesic activity against carrageenan-induced thermal hyperalgesia in rat at 5 mg/kg, po administered 1 hr before carrageenan challenge. More on the design: dose 5 mg/kg. Format: functional, organism-based.

In brackets after ≈: the same amount, converted by molar mass. Activity calls are given as the source filed them.

T2 sequence (Q8NER1 whole entry): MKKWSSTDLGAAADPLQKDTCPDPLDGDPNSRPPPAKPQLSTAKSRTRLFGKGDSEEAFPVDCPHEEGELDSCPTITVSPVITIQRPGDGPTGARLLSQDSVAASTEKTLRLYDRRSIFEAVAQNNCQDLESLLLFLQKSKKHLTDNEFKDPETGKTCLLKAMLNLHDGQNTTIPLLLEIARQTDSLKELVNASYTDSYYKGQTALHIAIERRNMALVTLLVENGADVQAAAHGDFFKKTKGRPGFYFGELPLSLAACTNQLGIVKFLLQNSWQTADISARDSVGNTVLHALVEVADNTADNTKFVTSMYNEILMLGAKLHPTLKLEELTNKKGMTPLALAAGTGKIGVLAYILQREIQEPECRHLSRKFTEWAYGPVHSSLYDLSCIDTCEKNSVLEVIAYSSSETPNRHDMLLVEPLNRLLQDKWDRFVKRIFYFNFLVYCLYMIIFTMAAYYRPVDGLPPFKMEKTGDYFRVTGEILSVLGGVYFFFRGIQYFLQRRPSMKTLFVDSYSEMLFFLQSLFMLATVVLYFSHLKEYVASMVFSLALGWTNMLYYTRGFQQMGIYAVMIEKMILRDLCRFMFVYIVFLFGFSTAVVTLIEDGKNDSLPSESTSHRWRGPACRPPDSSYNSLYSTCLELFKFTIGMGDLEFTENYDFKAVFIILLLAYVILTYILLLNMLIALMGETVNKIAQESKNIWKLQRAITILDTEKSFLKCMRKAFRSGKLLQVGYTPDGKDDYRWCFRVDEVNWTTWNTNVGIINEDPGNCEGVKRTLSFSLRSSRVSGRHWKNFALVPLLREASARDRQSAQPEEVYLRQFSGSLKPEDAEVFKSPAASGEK
T1 sequence (O35433 whole entry): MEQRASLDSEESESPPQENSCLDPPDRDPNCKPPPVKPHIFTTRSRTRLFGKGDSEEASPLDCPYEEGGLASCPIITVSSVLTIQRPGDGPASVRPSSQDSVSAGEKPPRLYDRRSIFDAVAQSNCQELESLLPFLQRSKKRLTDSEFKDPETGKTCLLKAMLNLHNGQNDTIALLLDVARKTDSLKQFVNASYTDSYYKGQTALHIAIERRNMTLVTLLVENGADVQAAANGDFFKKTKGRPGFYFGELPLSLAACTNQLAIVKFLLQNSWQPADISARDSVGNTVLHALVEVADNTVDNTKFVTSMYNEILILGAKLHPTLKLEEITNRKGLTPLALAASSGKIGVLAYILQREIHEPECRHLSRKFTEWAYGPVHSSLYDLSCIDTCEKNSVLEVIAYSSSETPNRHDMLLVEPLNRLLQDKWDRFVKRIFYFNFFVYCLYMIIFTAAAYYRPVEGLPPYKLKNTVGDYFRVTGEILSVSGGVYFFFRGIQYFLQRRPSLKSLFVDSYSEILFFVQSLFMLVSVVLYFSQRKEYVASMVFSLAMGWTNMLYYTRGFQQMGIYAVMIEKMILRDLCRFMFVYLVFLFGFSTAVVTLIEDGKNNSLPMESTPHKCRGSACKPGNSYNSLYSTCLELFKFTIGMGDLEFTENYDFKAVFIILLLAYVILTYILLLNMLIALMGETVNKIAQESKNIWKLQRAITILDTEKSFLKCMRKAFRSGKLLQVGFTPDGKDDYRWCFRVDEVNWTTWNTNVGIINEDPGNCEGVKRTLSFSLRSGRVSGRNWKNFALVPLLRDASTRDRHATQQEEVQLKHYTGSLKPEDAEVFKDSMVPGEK

In the case of `CC(=O)NC1CCN(c2nc3c(c(Nc4ccc(C(F)(F)F)cc4)n2)CCN(c2ncccc2C(F)(F)F)CC3)C1` (stereo not given), the IC50 (commonly the point on the concentration scale where inhibition reaches its midpoint) worked out at 410 nM in data set [1] and 150 nM in data set [4]. In addition, the values for the solubility (thermodynamic) in [2] and in [3] were 19 µg/mL (≈ 32.8 µM) and 202 µg/mL (≈ 349 µM), respectively.
For `FC(F)(F)c1ccc(Nc2nc(N3CCOCC3)nc3c2CCN(c2ncccc2C(F)(F)F)CC3)cc1`, in data set [5], the clearance was 51.7 mL/min/kg.
Turning to `CN1CCCC(N(C)c2nc3c(c(Nc4ccc(C(F)(F)F)cc4)n2)CCN(c2ncccc2C(F)(F)F)CC3)C1` (stereo not given), the IC50 in data set [1] and in data set [4] was > 5000 nM each time. For the same molecule, the solubility (thermodynamic) in data set [2] and in [3] was > 232 µg/mL throughout.
Consider `FC(F)(F)c1ccc(Nc2nc(N3CCNCC3)nc3c2CCN(c2ncccc2C(F)(F)F)CC3)cc1`, for which the IC50 in data set [1] was > 5000 nM. For the same molecule, the solubility (thermodynamic) (commonly solubility found after equilibrating the solid with the medium) was 158 µg/mL (≈ 294 µM) in data set [2] and 215 µg/mL (≈ 400 µM) in data set [3].
Consider `NC1CCN(c2nc3c(c(Nc4ccc(C(F)(F)F)cc4)n2)CCN(c2ncccc2C(F)(F)F)CC3)C1` (stereo not given), for which the IC50 is > 5000 nM in data set [1] and 3700 nM in data set [4]. Besides, the solubility (thermodynamic) in [2] and in [3] was > 215 µg/mL each time.
On to `CN(C)[C@H]1CCN(c2nc3c(c(Nc4ccc(C(F)(F)F)cc4)n2)CCN(c2ncccc2C(F)(F)F)CC3)C1`, for which the IC50 in data set [1] was 586 nM; in data set [4], 185 nM. The thermodynamic solubility in [2] is 57 µg/mL (≈ 101 µM); in data set [3] it was > 226 µg/mL.
As for `CC(C)CN1CCN(c2nc3c(c(Nc4ccc(C(F)(F)F)cc4)n2)CCN(c2ncccc2C(F)(F)F)CC3)CC1`, the IC50 stood at 330 nM in data set [6]; 89 nM in data set [1]; 63 nM in data set [8]; 67 nM in data set [13]; 11 nM in data set [4]. For the same molecule, the Tmax (commonly the time from dosing to the highest level) in [7] stood at 2.3 h. Moreover, the figures for the thermodynamic solubility in data set [2] and in [3] were 11 µg/mL (≈ 18.5 µM) and > 237 µg/mL, respectively. The Activity in the data set on Rattus norvegicus [9] was found to be 100%. Besides, the peak level in data set [10] (Cmax) was 300 nM. Also, the clearance in data set [11] is 11.7 mL/min/kg. Further, the results for the concentration at 5 h in data set [12] and in data set [18] were 1050 nM and 277 nM, respectively. Moreover, in data set [14], the Vd came to 0.5 L/kg. Besides, the bioavailability (usually the share of a dose that reaches the circulation, judged against a reference dose that is usually intravenous) in data set [15] worked out at 21%. In data set [16], the half-life – broadly, the time needed for the level to fall by half in the phase considered – was 1.8 h. In addition, the AUC(0-inf) (as a rule, total exposure, with the tail of the curve extrapolated) in data set [17] was 598 ng·h/mL. Further, the outcome in the data set on Rattus norvegicus [19] was Active.
With `CN(c1nc2c(c(Nc3ccc(C(F)(F)F)cc3)n1)CCN(c1ncccc1C(F)(F)F)CC2)C1CCCN(C(=O)OC(C)(C)C)C1` (stereo not given), the IC50 in [1] is 97 nM; in data set [4], 53 nM. The solubility (thermodynamic) in data set [2] was 4 µg/mL (≈ 6.01 µM); in data set [3], 1 µg/mL (≈ 1.5 µM).
Turning to `CC(C)(C)OC(=O)N1CCCC(Nc2nc3c(c(Nc4ccc(C(F)(F)F)cc4)n2)CCN(c2ncccc2C(F)(F)F)CC3)C1` (stereo not given), the IC50 in [1] worked out at 239 nM; in data set [4] it was 140 nM. For the same molecule, the thermodynamic solubility in data set [2] is 14 µg/mL (≈ 21.5 µM); in [3] it was 1 µg/mL (≈ 1.53 µM).
Consider `CN(C)[C@@H]1CCN(c2nc3c(c(Nc4ccc(C(F)(F)F)cc4)n2)CCN(c2ncccc2C(F)(F)F)CC3)C1`, for which the values for the IC50 in [1] and in [4] were 1040 nM and 243 nM, respectively. Further, the thermodynamic solubility is 57 µg/mL (≈ 101 µM) in [2] and > 226 µg/mL in [3].
Take `FC(F)(F)c1ccc(Nc2nc(N3CCN(C4CCC4)CC3)nc3c2CCN(c2ncccc2C(F)(F)F)CC3)cc1`: the IC50 in data set [1] worked out at 161 nM; in [4] it was 24 nM. Further, the figures for the solubility (thermodynamic) in data set [2] and in data set [3] were 2 µg/mL (≈ 3.38 µM) and > 237 µg/mL, respectively.
As for `CNC1CCN(c2nc3c(c(Nc4ccc(C(F)(F)F)cc4)n2)CCN(c2ncccc2C(F)(F)F)CC3)C1` (stereo not given), the IC50 was > 5000 nM in [1] and 2790 nM in data set [4]. The figures for the solubility (thermodynamic) in data set [2] and in data set [3] were 233 µg/mL (≈ 422 µM) and > 220 µg/mL, respectively.
In the same order, the values of `OCCN1CCN(c2nc3c(c(Nc4ccc(C(F)(F)F)cc4)n2)CCN(c2ncccc2C(F)(F)F)CC3)CC1` are 1160 nM, 498 nM, 4 µg/mL (≈ 6.88 µM) and > 233 µg/mL.
Consider `COCCN1CCN(c2nc3c(c(Nc4ccc(C(F)(F)F)cc4)n2)CCN(c2ncccc2C(F)(F)F)CC3)CC1`, for which the IC50 in data set [1] amounted to 207 nM; in data set [4] it was 65 nM. The figures for the thermodynamic solubility in [2] and in data set [3] were 6 µg/mL (≈ 10.1 µM) and > 238 µg/mL, respectively.
For the molecule `CN(CC1CCCCN1C)c1nc2c(c(Nc3ccc(C(F)(F)F)cc3)n1)CCN(c1ncccc1C(F)(F)F)CC2` (stereo not given), the IC50 was > 5000 nM in [1] and 3330 nM in data set [4]. In addition, the thermodynamic solubility in [2] and in data set [3] was > 283 µg/mL throughout.
